In patent US5190741A, “Agents for diagnosing and treating melanomas, aromatic halogenated derivatives usable as such agents and their preparation” (Institut National de la Sante et de la Recherche Medicale …, priority 1989, dated 1993):
Where two headings read alike, the source gives them in different places.

What was measured:
[1] = tested on: SW 948 (adenocarcinoma of the colon); experiment: Scintillation imaging (specificity), nu/nu SSCUP nude mice; assay type: in vivo; conditions: after injection of A
Description: (§1) The mice bearing grafted tumors are anesthetized by the i.p. injection of sodium pentobarbital 1/5 and immobilized under a scintillation camera (Gammatome II, CGR) equipped with a pinhole 3-360 collimator, sensitivity 3.2 10^-4.

[2] = tested on: A 431 (tumor of the vulva); experiment: as above; assay type: in vivo; conditions: after injection of A
Description: as §1

[3] = Tissue distribution in C57 BL6 mice bearing B16; assay type: in vivo, mouse; conditions: mouse, iv, 3 umol/animal
Outline: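 Values are % ID/g tissue, plus tissue ratios used as a selectivity index, from gamma counting (60% yield for 125I) of weighed blood and organ samples. Animals bearing grafted melanomas were killed between 1 and 24 h after injection of the 125I-labelled compound.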

[4] = tested on: Beu melanic human melanoma; experiment: Autoradiograms, nu/nu SSCUP nude mice bearing Beu; assay type: in vivo
Method: (§2) The autoradiograms are carried out in mice bearing grafted melanomas:
b. nu/nu SSCUP nudes bearing heterotransplants of melanic (Beu) or amelanic (Dau) human melanomas).
(§3) The animals bearing grafted tumors receive the labelled compounds in the form of the hydrochloride in saline solution (3.7 to 5×10^5 Bq/animal) in a caudal vein. At different time intervals after the administration of the compounds (from 15 minutes to 24 hours) the mice are anesthetized with ether and plunged into liquid nitrogen.
(§4) 30 μm sections, parallel to a sagittal plane, are prepared in a freezing microtome (TS 260, SLEE) according to the protocol described by Ullberg.

[5] = tested on: human and murine melanomas; experiment: Scintillation imaging in human and murine melanoma models (B16, B16 pulmonary metastases, Beu, Dau, FOSS(ORIS)); assay type: in vivo, human; mouse
Description: The mice bearing grafted tumors are anesthetized by the i.p. injection of sodium pentobarbital 1/5 and immobilized under a scintillation camera (Gammatome II, CGR) equipped with a pinhole 3-360 collimator, sensitivity 3.2 10^-4. […] C57 BL6 bearing pulmonary metastases of B16 melanoma.

B16 murine melanoma = experiment: Autoradiograms, C57 BL6 mice bearing B16; assay type: in vivo, mouse
Method: as §2
a. C57 BL6 bearing the B16 murine melanoma.
as §3, §4

[6] = LD50 determination, i.v. (Karber and Behrens); conditions: mouse, in vivo, iv
Description: (§5) The determination of the LD50 is made in the mouse after i.v. injection of the molecules according to the methodology described by Karber and Behrens.
(§6) 6 weeks old OF 1 male mice

[7] = tested on: 6 weeks old OF 1 male mice; experiment: LD50 determination, i.v. (Karber and Behrens); conditions: mouse, in vivo, iv
Description: as §5, §6

[8] = intestine, read-out: intestine % ID/g
[9] = kidney, read-out: kidney % ID/g
[10] = muscle, read-out: muscle % ID/g
[11] = pancreas, read-out: pancreas % ID/g
[12] = plasma, read-out: plasma % ID/g
[13] = spleen, read-out: spleen % ID/g
[14] = stomach, read-out: stomach % ID/g
[15] = submaxillary glands, read-out: submaxillary glands % ID/g

**Q.** What does the source list for `CCN(CC)CCNC(=O)c1ccc(I)cc1` [Derivative A, N-(2-diethylaminoethyl) 4-iodo benzamide]?
**A.** tumor image [1]: not obtained any image; tumor image [2]: not obtained any image; tissue uptake at 1 h ([3]; blood, read-out: blood % ID/g): 1.04 %ID/g; tissue uptake at 2 h ([3]; blood, read-out: blood % ID/g): 0.74 %ID/g; tissue uptake at 4 h ([3]; blood, read-out: blood % ID/g): 0.54 %ID/g; tissue uptake at 6 h ([3]; blood, 6 h, read-out: blood % ID/g): 0.21 %ID/g; tissue uptake at 24 h ([3]; blood, read-out: blood % ID/g): 0.022 %ID/g; tissue uptake at 8 h ([3]; blood, 8 h, read-out: blood % ID/g): 0.34 %ID/g; tissue uptake at 12 h ([3]; blood, read-out: blood % ID/g): 0.09 %ID/g; tissue uptake at 1 h ([3]; brain, read-out: brain % ID/g): 2.67 %ID/g; tissue uptake at 2 h ([3]; brain, read-out: brain % ID/g): 1.4 %ID/g; tissue uptake at 4 h ([3]; brain, read-out: brain % ID/g): 0.7 %ID/g; tissue uptake at 6 h ([3]; brain, 6 h, read-out: brain % ID/g): 0.32 %ID/g; tissue uptake at 24 h ([3]; brain, read-out: brain % ID/g): 0.005 %ID/g; tissue uptake at 8 h ([3]; brain, 8 h, read-out: brain % ID/g): 0.18 %ID/g; tissue uptake at 12 h ([3]; brain, read-out: brain % ID/g): 0.04 %ID/g; tissue uptake at 1 h ([3]; eye, read-out: eye % ID/g): 13.6 %ID/g; tissue uptake at 2 h ([3]; eye, read-out: eye % ID/g): 13 %ID/g; tissue uptake at 4 h ([3]; eye, read-out: eye % ID/g): 12.4 %ID/g; tissue uptake at 6 h ([3]; eye, 6 h, read-out: eye % ID/g): 12.1 %ID/g; tissue uptake at 24 h ([3]; eye, read-out: eye % ID/g): 6.65 %ID/g; tissue uptake at 8 h ([3]; eye, 8 h, read-out: eye % ID/g): 8.07 %ID/g; tissue uptake at 12 h ([3]; eye, read-out: eye % ID/g): 8.49 %ID/g; tissue uptake at 1 h [3, 8]: 5.22 %ID/g; tissue uptake at 2 h [3, 8]: 3.94 %ID/g; tissue uptake at 4 h [3, 8]: 2.8 %ID/g; tissue uptake at 6 h ([3]; intestine, 6 h, read-out: intestine % ID/g): 0.75 %ID/g; tissue uptake at 8 h ([3]; intestine, 8 h, read-out: intestine % ID/g): 0.71 %ID/g; tissue uptake at 12 h [3, 8]: 0.14 %ID/g; tissue uptake at 24 h [3, 8]: 0.02 %ID/g; tissue uptake at 1 h [3, 9]: 8.56 %ID/g; tissue uptake at 2 h [3, 9]: 5.93 %ID/g; tissue uptake at 4 h [3, 9]: 3.67 %ID/g; tissue uptake at 6 h ([3]; kidney, 6 h, read-out: kidney % ID/g): 1.1 %ID/g; tissue uptake at 24 h [3, 9]: 0.07 %ID/g; tissue uptake at 8 h ([3]; kidney, 8 h, read-out: kidney % ID/g): 0.84 %ID/g; tissue uptake at 12 h [3, 9]: 0.19 %ID/g; tissue uptake at 1 h ([3]; liver, read-out: liver % ID/g): 6.04 %ID/g; tissue uptake at 2 h ([3]; liver, read-out: liver % ID/g): 4.02 %ID/g; tissue uptake at 4 h ([3]; liver, read-out: liver % ID/g): 2.46 %ID/g; tissue uptake at 6 h ([3]; liver, 6 h, read-out: liver % ID/g): 0.95 %ID/g; tissue uptake at 24 h ([3]; liver, read-out: liver % ID/g): 0.16 %ID/g; tissue uptake at 8 h ([3]; liver, 8 h, read-out: liver % ID/g): 0.8 %ID/g; tissue uptake at 12 h ([3]; liver, read-out: liver % ID/g): 0.25 %ID/g; tissue uptake at 1 h ([3]; lung, read-out: lungs % ID/g): 11 %ID/g; tissue uptake at 2 h ([3]; lung, read-out: lungs % ID/g): 6.12 %ID/g; tissue uptake at 4 h ([3]; lung, read-out: lungs % ID/g): 4.29 %ID/g; tissue uptake at 6 h ([3]; lung, 6 h, read-out: lungs % ID/g): 1.99 %ID/g; tissue uptake at 8 h ([3]; lung, 8 h, read-out: lungs % ID/g): 1.11 %ID/g; tissue uptake at 12 h ([3]; lung, read-out: lungs % ID/g): 0.2 %ID/g; tissue uptake at 24 h ([3]; lung, read-out: lungs % ID/g): 0.05 %ID/g; tissue uptake at 6 h ([3]; lung, as from the 6th hour, mice bearing melanic melanomas, read-out: pulmonary binding): < 1 %ID/g; tissue uptake at 1 h [3, 10]: 1.55 %ID/g; tissue uptake at 2 h [3, 10]: 1.13 %ID/g; tissue uptake at 4 h [3, 10]: 0.66 %ID/g; tissue uptake at 6 h ([3]; muscle, 6 h, read-out: muscle % ID/g): 0.19 %ID/g; tissue uptake at 24 h [3, 10]: 0.009 %ID/g; tissue uptake at 8 h ([3]; muscle, 8 h, read-out: muscle % ID/g): 0.14 %ID/g; tissue uptake at 12 h [3, 10]: 0.03 %ID/g; tissue uptake at 1 h [3, 11]: 5.34 %ID/g; tissue uptake at 2 h [3, 11]: 3.42 %ID/g; tissue uptake at 4 h [3, 11]: 2.01 %ID/g; tissue uptake at 6 h ([3]; pancreas, 6 h, read-out: pancreas % ID/g): 0.55 %ID/g; tissue uptake at 8 h ([3]; pancreas, 8 h, read-out: pancreas % ID/g): 0.41 %ID/g; tissue uptake at 12 h [3, 11]: 0.13 %ID/g; tissue uptake at 24 h [3, 11]: 0.04 %ID/g; tissue uptake at 1 h [3, 12]: 0.82 %ID/g; tissue uptake at 2 h [3, 12]: 0.55 %ID/g; tissue uptake at 4 h [3, 12]: 0.45 %ID/g; tissue uptake at 6 h ([3]; plasma, 6 h, read-out: plasma % ID/g): 0.21 %ID/g; tissue uptake at 24 h [3, 12]: 0.024 %ID/g; tissue uptake at 8 h ([3]; plasma, 8 h, read-out: plasma % ID/g): 0.38 %ID/g; tissue uptake at 12 h [3, 12]: 0.11 %ID/g; tissue uptake at 1 h [3, 13]: 5.91 %ID/g; tissue uptake at 2 h [3, 13]: 2.94 %ID/g; tissue uptake at 4 h [3, 13]: 1.36 %ID/g; tissue uptake at 6 h ([3]; spleen, 6 h, read-out: spleen % ID/g): 0.56 %ID/g; tissue uptake at 8 h ([3]; spleen, 8 h, read-out: spleen % ID/g): 0.46 %ID/g; tissue uptake at 12 h [3, 13]: 0.16 %ID/g; tissue uptake at 24 h [3, 13]: 0.02 %ID/g; tissue uptake at 1 h [3, 14]: 6.03 %ID/g; tissue uptake at 2 h [3, 14]: 3.87 %ID/g; tissue uptake at 4 h [3, 14]: 2.35 %ID/g; tissue uptake at 6 h ([3]; stomach, 6 h, read-out: stomach % ID/g): 1.14 %ID/g; tissue uptake at 8 h ([3]; stomach, 8 h, read-out: stomach % ID/g): 1.65 %ID/g; tissue uptake at 12 h [3, 14]: 0.19 %ID/g; tissue uptake at 24 h [3, 14]: 0.07 %ID/g; tissue uptake at 1 h [3, 15]: 6.06 %ID/g; tissue uptake at 2 h [3, 15]: 3.6 %ID/g; tissue uptake at 4 h [3, 15]: 3.68 %ID/g; tissue uptake at 6 h ([3]; submaxillary glands, 6 h, read-out: submaxillary glands % ID/g): 1.12 %ID/g; tissue uptake at 8 h ([3]; submaxillary glands, 8 h, read-out: submaxillary glands % ID/g): 0.98 %ID/g; tissue uptake at 12 h [3, 15]: 0.44 %ID/g; tissue uptake at 24 h [3, 15]: 0.09 %ID/g; tissue uptake at 1 h ([3]; tumor, read-out: tumor % ID/g): 6.75 %ID/g; tissue uptake at 2 h ([3]; tumor, read-out: tumor % ID/g): 6.04 %ID/g; tissue uptake at 4 h ([3]; tumor, read-out: tumor % ID/g): 4.82 %ID/g; tissue uptake at 6 h ([3]; tumor, 6 h, read-out: tumor % ID/g): 3.53 %ID/g; tissue uptake at 24 h ([3]; tumor, read-out: tumor % ID/g): 0.79 %ID/g; tissue uptake at 8 h ([3]; tumor, up to 8 hours, B16, read-out: intratumoral concentration): > 1 %ID/g; tissue uptake at 8 h ([3]; tumor, 8 h, read-out: tumor % ID/g): 3.42 %ID/g; tissue uptake at 12 h ([3]; tumor, read-out: tumor % ID/g): 1.01 %ID/g; darkening of the film at the tumor ([4]; 1 to 4 h after i.v.): Identical images; tumor visibility on autoradiogram ([4]; 24 h after i.v.): we can no longer see darkening of the film; tumoral definition in scintillation images ([5]; ^125 I and ^123 I-A, i.v.): good tumoral definition; early images ([5]; considerable intraabdominal and pulmonary radioactivity): more difficult to interpret; quality of tumor images ([5]; from 4 h): good quality; intratumoral necrosis zones ([5]; in vivo): not visualized; size of human melanoma imaged ([5]; in vivo): less than 5 mm; darkening of the film at the tumor (B16 murine melanoma; 1 to 4 h after i.v.): considerable and inhomogeneous darkening of the film; tumor visibility on autoradiogram (B16 murine melanoma; 24 h after i.v.): still visible; LD50 [6]: 125 mg/kg; LD 0 [7]: 75 mg/kg; LD 100 [7]: 150 mg/kg
